Selectivity ratio, IC50 and CC50 data for seven molecules are collected here from ChEMBL document CHEMBL5113385, “Natural products and synthetic analogues against HIV: A perspective to develop new potential anti-HIV drugs” (Eur J Med Chem, 2022).

One may read the IC50 as the midpoint of a concentration-inhibition curve. As usually defined, the CC50 is the concentration at which the toxic effect on the cells reaches its halfway point.

The structures appear in SMILES notation. In brackets after ≈: the same amount, converted by molar mass. Where only a bound is given, the exact number is not on record here.

Data set [1] can be described thus: Selectivity index, ratio of CC50 for human MT2 cells to EC50 for HIV-1 IIIB infected in human MT2 cells. The class given is toxicity, cell-based. As to conditions: MT2 cells (uninfected, and infected with HIV-1 IIIB), read-out: Ratio CC50/EC50.
Data set [2] relates to Human immunodeficiency virus 1. Description: Antiviral activity against HIV-1 IIIB infected in human MT2 cells assessed as reduction in viral replication. The class given is functional, organism-based. Conditions: Human immunodeficiency virus 1, IIIB.
The test system of data set [3] is Human immunodeficiency virus 1. Description: Antiviral activity against patient-derived wild-type HIV-1 infected in human CEM-T4 cells assessed as inhibition of viral replication preincubated for 24 hrs followed by viral infection measured after 7 days by ELISA. Conditions: Human immunodeficiency virus 1, CEM-T4. The format is functional, organism-based. (ELISA stands for enzyme-linked immunosorbent assay.)

A short description of data set [4]: Inhibition of HIV-1 gp41 six-helix bundle formation incubated with N36 for 30 mins followed by incubation with C34 peptide for 30 mins by sandwich ELISA. The format is functional, Human immunodeficiency virus 1.
The nature of data set [5]: Selectivity index, ratio of CC50 for human C8166 cells to EC50 for HIV IIIB infected in human C8166 cells. The format is toxicity, cell-based. Conditions: C8166 cells (uninfected, and infected with HIV IIIB), read-out: Ratio CC50/EC50.
Data set [6] deals with Human immunodeficiency virus 1. Description: Antiviral activity against wild-type HIV-1 IIIB infected in human C8166 cells assessed as reduction in virus-induced cytopathic effect incubated for 3 days by MTT assay. The class given is functional, organism-based. As to conditions: Human immunodeficiency virus 1, IIIB, C8166, 72 h.
Data set [7] relates to Human immunodeficiency virus 1. The data set is described as follows: Antiviral activity against HIV-1 NL4-3 infected in human TZM-bl cells assessed as reduction in virus-induced cytopathic effect incubated for 2 days by Bright Glo assay. The format is functional, organism-based. As to conditions: Human immunodeficiency virus 1, NL4-3, TZM-bl, 48 h. (In general: Protection from cytopathic effect is a common read-out in antiviral testing.)

The test system of data set [8] is Human immunodeficiency virus 1. The data set is described as follows: Antiviral activity against HIV-1 IIIB infected in human MT4 cells assessed as reduction in virus-induced cytopathic effect incubated for 5 days by MTT assay. The class given is functional, organism-based. As to conditions: Human immunodeficiency virus 1, IIIB, MT4, 120 h.
Data set [9] in a line: Selectivity index, ratio of CC50 for human MT4 cells to EC50 for HIV-1 IIIB infected in human MT4 cells. As to conditions: MT4 cells (uninfected, and infected with HIV-1 IIIB), read-out: Ratio CC50/EC50. The class given is toxicity, cell-based.
For data set [10], the system named is MT4. The data set is described as follows: Cytotoxicity against human MT4 cells assessed as reduction in cell viability incubated for 5 days by MTT assay. The format is functional. Conditions: MT4, 120 h, time 5 day. On the technique in general: Tetrazolium dyes change colour on reduction, which living cells bring about.
In data set [11] the test system is Human immunodeficiency virus 1. The data set is described as follows: Antiviral activity against HIV-1 E138K mutant infected in human MT4 cells assessed as reduction in viral replication incubated for 5 days by MTT assay. The format is functional, organism-based. As to conditions: Human immunodeficiency virus 1, E138K mutant, MT4, 120 h.
In data set [12] the test system is Influenza A virus. The data set is described as follows: Antiviral activity against Influenza virus A/Puerto Rico/8/34 (H1N1) infected in MDCK cells assessed as reduction in viral titer preincubated for 1 hr followed by viral infection at MOI of 0.01 for 24 hrs and subsequent addition of culture medium and incubated for 48 hrs followed by addition of chicken erythrocytes measured after 40 mins by agglutination method. The format is functional, organism-based.

As to `Cc1cccc2cc(/C=C3\NC(=O)N(Cc4ccccc4)C3=O)c(Cl)nc12`, in [1], the selectivity ratio came to 117. Besides, the IC50 in [2] turned out to be 148 nM.
For `C=C(CP(=O)(OCC)OCC)[C@@H]1CC[C@]2(C(=O)O)CC[C@]3(C)[C@H](CC[C@@H]4[C@@]5(C)CC[C@H](OC(=O)CC(C)(C)C(=O)O)C(C)(C)[C@@H]5CC[C@]43C)[C@@H]12`, the IC50 in [3] was 300 nM.
In the case of `Cc1cc(/C=C2\SC(=S)N(Cc3ccccc3C(F)(F)F)C2=O)c(C)n1-c1ccc(O)c(C(=O)O)c1`, in data set [4], the half-inhibitory concentration (IC50) turned out to be 23000 nM.
Regarding `CCc1c(CC2CCCCC2)nc(SCc2cc(-c3ccc(O)cc3)[nH]n2)[nH]c1=O`, the selectivity ratio in data set [5] is 25.5. For the same molecule, the 50% inhibitory concentration (IC50) in data set [6] amounted to 3.8 nM.
For the molecule `COc1ccc(N(C)C(=O)[C@H](Cc2cc(F)cc(F)c2)NC(=O)c2cccc(-c3cn(Cc4ccc([N+](=O)[O-])cc4)nn3)c2)cc1`, in [7], the 50% inhibitory concentration (IC50) came to 2130 nM.
For the molecule `N#Cc1ccc(Nc2nccc(/C(=N\O)c3ccc(-c4ccc(F)cc4)cc3F)n2)cc1`, the IC50 in data set [8] was 12100 nM; in [11], 27 nM. The selectivity ratio in [9] was more than 24100. In addition, the cytotoxic concentration (CC50) in [10] was more than 292000 nM.
In the case of `Cc1cn([C@H]2C[C@H](n3cc(Cn4nnnc4CC(=O)N(C)C)nn3)[C@@H](CO)O2)c(=O)[nH]c1=O`, in data set [12], the IC50 came out at 39.6 µg/mL (≈ 86 µM).
